Earlier results as cited in publication PMC2837554 (ChemMedChem, 2010).

How the values were obtained:
aggregated Aβ = conditions: reported value

Kd (aggregated Aβ)	Kd (Aβ aggregates)	SMILES
2000 nM		Cc1ccc2c(c1)sc(-c1ccc(N(C)C)cc1)[n+]2C [ThT, Thioflavin T]
	38 nM	CN(C)c1ccc(/C=C/C2=CC(=C/C=C3C=CC(=[N+](C)C)C=C3)/O[B-](F)(F)O2)cc1 [CRANAD-2]
